One assay has as its system MOLM-13. Also noted: method as in PMID 29350920. The following applies: cited from earlier work.
The subject of assay [1] is c-Myb-dependent gene expression. Also on record: method as in PMID 23501116. The following applies: read-out: IC50 inhibition of c-Myb-dependent gene expression; cited from earlier work.
Another assay has as its system B16. Also noted: method as in PMID 15577239. As to conditions: cited from earlier work.
The test system of assay [2] is HL-60, MOLM-13, AMO-1, and KMS-12 PE cancer cells. Kind of assay: Metabolic activity, range over the four tested cancer cell lines. The following applies: HL-60, MOLM-13, AMO-1, KMS-12 PE; read-out: IC50 inhibition of metabolic activity, range over cell lines. The class given is cell-based. The protocol:
Acute myeloid leukemia cell line HL-60 and multiple myeloma cell lines AMO-1 and KMS-12-PE were obtained from the German Collection of Microorganisms and Cell Cultures (DSMZ), Braunschweig, Germany, and non-tumorigenic stromal cell line HS-5 was acquired from the American Type Culture Collection (ATCC, Manassas, VA, USA). All cell lines were cultured in RPMI 1640 medium without phenol red (Pan Biotech, Aidenbach, Germany), supplemented with 2 mM glutamine, 100 U/mL penicillin, 100 µg/mL streptomycin (Sigma-Aldrich, St. Louis, MO, USA), and 10% fetal bovine serum (FBS Maximus, Catus Biotech GmbH, Tutzing, Germany) at 37 °C in a humidified atmosphere of 5% CO2/95% air. […] Cell proliferation was assessed by [^3H]-thymidine uptake. […] Cells were harvested using a semi-automated device, and [^3H]-thymidine incorporation (expressed in counts per minute, cpm) was measured with a scintillation counter (MicroBeta TriLux, PerkinElmer, Waltham, MA, USA). Metabolic activity was assessed by resazurin staining. […] Relative fluorescence units (RFUs) were measured using a Synergy H1 plate reader equipped with a 560 nm excitation/590 nm emission filter set (BioTek; Agilent, Santa Clara, CA, USA). Proliferation and metabolic activity in the absence of compounds were defined as 100% (control), and the values for compound-treated samples were expressed as percentages relative to the control. […]

For a further assay, the system named is NF-κB p65. Also on record: method as in PMID 22685350. As to conditions: read-out: concentration inhibiting NF-κB p65; cited from earlier work.
In the next assay the test system is EOL-1. Also noted: method as in PMID 29350920. As to conditions: cited from earlier work.
The subject of a further assay is KB cell line. Also noted: method as in PMID 17089326. The following applies: cited from earlier work.
For the next assay, the system named is KMS-12-PE cells. Put plainly: Proliferation, [3H]-thymidine uptake, KMS-12-PE. The assay is classed as cell-based. The protocol: Acute myeloid leukemia cell line HL-60 and multiple myeloma cell lines AMO-1 and KMS-12-PE were obtained from the German Collection of Microorganisms and Cell Cultures (DSMZ), Braunschweig, Germany, and non-tumorigenic stromal cell line HS-5 was acquired from the American Type Culture Collection (ATCC, Manassas, VA, USA). All cell lines were cultured in RPMI 1640 medium without phenol red (Pan Biotech, Aidenbach, Germany), supplemented with 2 mM glutamine, 100 U/mL penicillin, 100 µg/mL streptomycin (Sigma-Aldrich, St. Louis, MO, USA), and 10% fetal bovine serum (FBS Maximus, Catus Biotech GmbH, Tutzing, Germany) at 37 °C in a humidified atmosphere of 5% CO2/95% air. Cells were fed twice weekly. Logarithmically growing cells were resuspended at 1 × 10^5 cells/mL, plated in triplicate in round-bottom 96-well plates (100 µL per well; Falcon, Becton Dickinson, Franklin Lakes, NJ, USA), and incubated at 37 °C in 5% CO2/95% air for 2 h. Subsequently, the compounds were adjusted in the cell culture medium to reach the final concentrations in a total volume of 150 µL and incubated for an additional 72 h. Cell proliferation was assessed by [^3H]-thymidine uptake. Each well was exposed to 2 µCi [^3H]-thymidine (Hartmann Analytic, Braunschweig, Germany) during the final 12–16 h of incubation. Cells were harvested using a semi-automated device, and [^3H]-thymidine incorporation (expressed in counts per minute, cpm) was measured with a scintillation counter (MicroBeta TriLux, PerkinElmer, Waltham, MA, USA). Metabolic activity was assessed by resazurin staining. Resazurin (Carl Roth, Karlsruhe, Germany) was dissolved in distilled water at a concentration of 0.1 mg/mL, and 15 µL of this solution was added to each well, followed by a 2 h incubation at 37 °C. Relative fluorescence units (RFUs) were measured using a Synergy H1 plate reader equipped with a 560 nm excitation/590 nm emission filter set (BioTek; Agilent, Santa Clara, CA, USA). Proliferation and metabolic activity in the absence of compounds were defined as 100% (control), and the values for compound-treated samples were expressed as percentages relative to the control. Selectivity indices were calculated by dividing the IC50 value of each compound against HS-5 cells through the IC50 values against the investigated cell lines.
The Wilcoxon Rank Sum Test was used to analyze proliferation and metabolic activity in the absence and presence of varying compound concentrations (NCSS 2007 software, version 07.1.2, Kaysville, UT, USA). A p-value < 0.05 was considered statistically significant. IC50 values were calculated using GraphPad Prism 10.1.2. This software reports 95% confidence intervals instead of standard errors. […] Nonetheless, the figures clearly illustrate the IC50 values due to the narrow concentration range tested.

A value given as a limit tells only on which side of the number the result lay.

With `C=C(C)C(=O)O[C@H]1C[C@@]2(C)OC(=CC2=O)/C(CO)=C\[C@H]2OC(=O)C(=C)[C@H]12` [Compound 5, goyazensolide], the IC50 in the assay on MOLM-13 was 860 nM; in assay [1], 630 nM; in the assay with B16 it was 2080 nM; in assay [2], 1000 to 2000 nM; with NF-κB p65, 3800 nM; with EOL-1 it was 1100 nM. The IC50 in the assay on KB cell line was < 300 nM; with KMS-12-PE cells (Homo sapiens, KMS-12-PE, 72 h, KMS-12-PE, 72 h, 95% confidence interval in brackets, read-out: IC50 inhibition of proliferation), 1500 nM. In addition, the “Selectivity index (proliferation)” value with KMS-12-PE cells (IC50 HS-5 / IC50 KMS-12-PE) was 1.3.

The record behind these values is paper PMC12388523, “Flavonoids and Sesquiterpene Lactones from Lychnophora ericoides (Arnica-Do-Cerrado) and Their In Vitro Effects on Multiple Myeloma and Acute Myeloid Leukemia” (Metabolites, 2025).
